According to patent US8808751B2, “Methods for the preparation of biologically active compounds in nanoparticulate form” (Iceutica Pty Ltd., priority 2006, dated 2014):
Counter-ions that a name gives are not always drawn. Values belong to the compound of their own block, whether it stands above or below them.

Legend:
[1] = Particle size distribution (dynamic light scattering); type: physicochemical; conditions: washed dispersion, larger aggregates removed by centrifugation
Text: In a preferred form of the invention, about 90% of the particles have a particle size of less than about 500 nm. The particles distribution can be measured with dynamic light scattering of a dispersion of the particles with the aid of sonication, and after centrifugation at 500 rcf for 30 seconds to remove larger agglomerates from the dispersion. Other means to measure the particles size are for examples surface area measurements, and electron micrographs, which can be used to support the measured size distribution of the particles.
The size determined by SEM is in good agreement with the size distribution of the dispersion before drying by dynamic light scatter (DLS) (FIG. 10). Here the particles size was determined with a Malvern HPPS dynamic light scattering apparatus with a size distribution after number of 128±53 nm (number weighted) in intensity a second peak of 300 nm was detected. Prior to the measurement any larger aggregates or agglomerates were removed by 1 min centrifugation at 6000 g, and only the supernatant was analyzed.

[2] = Particle size from SEM/TEM images; type: physicochemical; conditions: for particle size (SEM/TEM): milled with NaCl, grinding compound removed by washing
BET surface area = type: physicochemical; conditions: for BET surface area: raloxifene forms, milled with NaCl and washed (commercial: as obtained)
[3] = Dissolution in simulated intestinal fluid; type: physicochemical; conditions: simulated intestinal fluid (SIF), 60 mg in 1 L fluid, 90 minutes post addition
Protocol: (§1) The dissolution properties of the particulate raloxifene hydrochloride were tested with a USP apparatus in simulated gastric conditions, and compared with commercial raloxifene hydrochloride. About 60 mg of particulate raloxifene hydrochloride and commercial raloxifene hydrochloride, respectively, were introduced into gelatin capsules. The dissolution properties were followed as a function of solution concentration versus time.
(§2) As tested prior to administration to the dogs, the particulate raloxifene hydrochloride had the following properties: >75% of the particles were in the range of 220-350 nm in size, with >90% in the range of […]. […] At 90 minutes post addition, approximately 15 mg/L of particulate raloxifene was detected versus 8 mg/L of comparison API for SGF; and 4.5 mg/L versus 0.75 mg/L for SIF.

[4] = Pharmacokinetics after oral capsule administration, crossover study; type: in vivo; conditions: 12 beagle dogs
Protocol: This study involved the investigation of the pharmacokinetics of raloxifene hydrochloride following oral administration of two dosage formulations to 12 male and female beagle dogs. The two dosage forms investigated were 1) raloxifene hydrochloride particles, developed according to the method of the present invention, and 2) standard API. Both forms were administered as capsules prepared by the Pharmaceutics laboratory of TetraQ.
The study was designed as a crossover trial conducted in 6 male and 6 female healthy Beagle dogs. Raloxifene was administered as an oral dose with three male plus three female dogs each receiving one of the two preparations on each of two dosing occasions. Eleven plasma samples were collected from each animal in the 24 hour period following each dose and these were all available for determination of raloxifene concentration.
Plasma samples were transported to the TetraQ-ADME laboratories on dry ice and all were in an intact (frozen) condition upon arrival. The concentration of raloxifene in the plasma samples was determined by an LC-MS/MS assay developed and validated by TetraQ-ADME,
Pharmacokinetic analysis was performed using purpose-written macros for Excel Software. Standard model-independent pharmacokinetic methods were used. Nominal sampling times were used in the calculations. The plasma raloxifene concentrations were used to determine the following parameters: • (i) Cmax Maximum plasma concentration, read directly from the raw data. • (ii) Tmax Time at which Cmax was achieved, also read directly from the raw data. • (iii) ke Terminal elimination rate constant, which was determined as the slope of the regression line of best fit to the approximately log-linear terminal elimination phase (using the least squares linear regression function in the Excel 2003 software). […]

[5] = Dissolution in simulated gastric fluid (USP apparatus); type: physicochemical; conditions: simulated gastric fluid (SGF), 60 mg in 1 L fluid, 90 minutes post addition
Protocol: as §1
The dissolution conditions were as follows: 1 L of 0.1 M HCl containing 2 g of NaCl were degassed and brought to 37° C. in a USP conform dissolution vessel to paddle and stirred at about 80 rpm. […] For each time point, 2 mL of sample were removed from the solution, to remove larger aggregates it was centrifuged for 1 min at 10000 g and 1.5 ml was taken from the top of the solution and the concentration was measured using a Waters HPLC running a method validated with respect to specificity, linearity, precision and repeatability.
as §2

[6] = Stability of drug on dry milling; type: physicochemical; conditions: dry milled with NaCl for 180 minutes; attributed to degradation of the drug
Protocol: [drawing 3] was placed in a milling apparatus (a 70 cm^3 stainless steel ball mill container) with grinding compound in the form of 3.68 g of NaCl, thereby providing the mixture at 9.6 and 90.4 weight % respectively, corresponding to 15 and 85 volume %, with a total volume of 2 cm^3. Milling media comprising 40 g of 10 mm steel balls (10 pieces) were employed in the container. The milling apparatus was closed under house vacuum prior to milling. […] The mixture was dry milled for 15 minutes and 180 minutes, the composition resulting after milling for both times comprised olanzapine in nanoparticulate form dispersed in the grinding medium NaCl.
Milling times assayed included 15 and 180 minutes in two separate milling runs. Analysis of the melting point of the nanoparticles produced at 180 minute milling time period confirmed that the resulting composition was olanzapine, with a melting point in the range of 200° C.

[7] = 15 vol % sample in NaCl, washed, stabilized with CTAB

SMILES: O=C(O)Cc1ccccc1Nc1c(Cl)cccc1Cl [DCA, diclofenac acid]
particle size by DLS (number weighted) [1]: 160±30 nm | nanoparticle size [2, 7]: less than 200 nm | size of the majority of nanoparticles [2, 7]: 30-50 nm | nanoparticle diameter (TEM) ([2]; milled with NH4Cl, washed with 0.01 M HCl and 1 mM CTAB): about 200 nm | particle size (SEM/TEM) [2]: 100-200 nm

SMILES: Cc1cc2c(s1)Nc1ccccc1N=C2N1CCN(C)CC1 [olanzapine]
appearance after milling (degradation) [6]: some decolourization

Now from value to compound:

particle diameter calculated from BET surface area (BET surface area; density of 1.2 g/cm^3): 85 nm | particle diameter calculated from BET surface area (BET surface area; density of 1.3 g/cm^3, assuming monodispersed nanoparticles): about 80 nm | particle diameter calculated from BET surface area (BET surface area; density of 1.4 g/cm^3): 70 nm | BET surface area (BET surface area): 57.7178±0.4095 m^2/g | particle size (SEM/TEM) [2]: under 100 nm
SMILES: O=C(c1ccc(OCCN2CCCCC2)cc1)c1c(-c2ccc(O)cc2)sc2cc(O)ccc12 [Raloxifene Free Base]

BET surface area (BET surface area; hydrochloride): 10.6 m^2/g | particle size (SEM/TEM) ([2]; hydrochloride): 100-200 nm
SMILES: O=C(c1ccc(OCCN2CCCCC2)cc1)c1c(-c2ccc(O)cc2)sc2cc(O)ccc12 [Raloxifene HCl (Amorphous), raloxifene hydrochloride]

solution concentration detected (dissolution) [3]: ~0.75 mg/L | area under the concentration vs. time curve (AUC0-t) ([4]; mean±SD): 21.36 ± 16.79 ng·h/mL | Cmax ([4]; both sexes, dog, plasma, mean±SD, read-out: maximum plasma concentration (Cmax)): 7.69 ± 4.54 ng/mL | Tmax ([4]; both sexes, dog, plasma, read-out: median time to maximum concentration (Tmax)): 1.5 h | BET surface area (BET surface area; listed as commercial raloxifene HCl, hydrochloride): 0.1 m^2/g | solution concentration detected (dissolution) [5]: ~8 mg/L
SMILES: O=C(c1ccc(OCCN2CCCCC2)cc1)c1c(-c2ccc(O)cc2)sc2cc(O)ccc12 [commercial raloxifene hydrochloride, raloxifene hydrochloride]
